According to patent publication US9738634B2, “Heterocyclic amide compound and herbicide” (SYNGENTA PARTICIPATIONS AG, priority 2013, dated 2017):

Columns and labels:
Assay type in all cases: in vivo
Conditions in all cases: treatment dosage 320 g/ha
[1] = test system: barnyard grass; assay: Test Example 1: weedkilling efficacy, preemergent weed treatment in the submerged state; A: barnyard grass
Method in brief: (§1)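 Pots of alluvial soil flooded 4 cm deep, sown with barnyard grass, bulrush and oval-leafed pondweed and transplanted with 2.5-leaf rice. Emulsified compound applied to the water surface on sowing day at stated g/ha; greenhouse 25–30 °C, effects assessed 3 weeks after treatment.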

[2] = test system: bulrush; assay: Test Example 1: weedkilling efficacy, preemergent weed treatment in the submerged state; B: bulrush
Method in brief: as §1

[3] = test system: oval-leafed pondweed; assay: Test Example 1: weedkilling efficacy, preemergent weed treatment in the submerged state; C: oval-leafed pondweed
Method in brief: as §1

[4] = test system: transplanted rice; assay: Test Example 1: preemergent weed treatment in the submerged state, effect on crop; a: transplanted rice
Method in brief: as §1

[5] = test system: barnyard grass; assay: Test Example 2: weedkilling efficacy, growth period weed treatment in the submerged state; A: barnyard grass
Method in brief: (§2)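 Barnyard grass, bulrush and oval-leafed pondweed sown in alluvial soil under 4 cm flooding, greenhouse 25 to 30° C. At 1-2 leaf stage, water-diluted emulsion applied to the water surface at stated g/ha dosages; effects scored 3 weeks later.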

[6] = test system: bulrush; assay: Test Example 2: weedkilling efficacy, growth period weed treatment in the submerged state; B: bulrush
Method in brief: as §2

[7] = test system: oval-leafed pondweed; assay: Test Example 2: weedkilling efficacy, growth period weed treatment in the submerged state; C: oval-leafed pondweed
Method in brief: as §2

[8] = test system: crabgrass; assay: Test Example 3: weedkilling efficacy through soil treatment; D: crabgrass
Method in brief: (§3)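 Crop and weed responses were judged three weeks after a uniform surface spray of the water-diluted emulsion at the given g/ha rate. Seeds sat beneath about 1.5 cm of sterilized diluvial soil, and boxes stood in a greenhouse at 25 to 30° C.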

[9] = test system: green foxtail; assay: Test Example 3: weedkilling efficacy through soil treatment; E: green foxtail
Method in brief: as §3

[10] = test system: barnyard grass; assay: Test Example 3: weedkilling efficacy through soil treatment; F: barnyard grass
Method in brief: as §3

[11] = test system: wild oat; assay: Test Example 3: weedkilling efficacy through soil treatment; G: wild oat
Method in brief: as §3

[12] = test system: black-grass; assay: Test Example 3: weedkilling efficacy through soil treatment; H: black-grass
Method in brief: as §3

[13] = test system: Italian ryegrass; assay: Test Example 3: weedkilling efficacy through soil treatment; I: Italian ryegrass
Method in brief: as §3

[14] = test system: common wind-grass; assay: Test Example 3: weedkilling efficacy through soil treatment; J: common wind-grass
Method in brief: as §3

[15] = test system: Indian mallow; assay: Test Example 3: weedkilling efficacy through soil treatment; K: Indian mallow
Method in brief: as §3

[16] = test system: redroot pigweed; assay: Test Example 3: weedkilling efficacy through soil treatment; L: redroot pigweed
Method in brief: as §3

[17] = test system: chickweed; assay: Test Example 3: weedkilling efficacy through soil treatment; N: chickweed
Method in brief: as §3

[18] = test system: catchweed; assay: Test Example 3: weedkilling efficacy through soil treatment; O: catchweed
Method in brief: as §3

[19] = test system: birds-eye speedwell; assay: Test Example 3: weedkilling efficacy through soil treatment; p: birds-eye speedwell
Method in brief: as §3

[20] = test system: directly sown rice; assay: Test Example 3: soil treatment, effect on crop; b: directly sown rice
Method in brief: as §3

[21] = test system: corn; assay: Test Example 3: soil treatment, effect on crop; c: corn
Method in brief: as §3

[22] = test system: soybean; assay: Test Example 3: soil treatment, effect on crop; d: soybean
Method in brief: as §3

[23] = test system: wheat; assay: Test Example 3: soil treatment, effect on crop; e: wheat
Method in brief: as §3

[24] = test system: beet; assay: Test Example 3: soil treatment, effect on crop; f: beet
Method in brief: as §3

[25] = test system: rapeseed; assay: Test Example 3: soil treatment, effect on crop; g: rapeseed
Method in brief: as §3

[26] = test system: crabgrass; assay: Test Example 4: weedkilling efficacy by foliar treatment; D: crabgrass
Method in brief: (§4)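 Seeds are spot-sown into sterilized diluvial soil and covered with about 1.5 cm of soil. After 14 days' greenhouse growth at 25 to 30° C, plants are sprayed on stems and leaves with diluted emulsion at the stated g/ha rate, then scored at 3 weeks.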

[27] = test system: green foxtail; assay: Test Example 4: weedkilling efficacy by foliar treatment; E: green foxtail
Method in brief: as §4

[28] = test system: barnyard grass; assay: Test Example 4: weedkilling efficacy by foliar treatment; F: barnyard grass
Method in brief: as §4

[29] = test system: wild oat; assay: Test Example 4: weedkilling efficacy by foliar treatment; G: wild oat
Method in brief: as §4

[30] = test system: black-grass; assay: Test Example 4: weedkilling efficacy by foliar treatment; H: black-grass
Method in brief: as §4

[31] = test system: Italian ryegrass; assay: Test Example 4: weedkilling efficacy by foliar treatment; I: Italian ryegrass
Method in brief: as §4

[32] = test system: common wind-grass; assay: Test Example 4: weedkilling efficacy by foliar treatment; J: common wind-grass
Method in brief: as §4

[33] = test system: Indian mallow; assay: Test Example 4: weedkilling efficacy by foliar treatment; K: Indian mallow
Method in brief: as §4

[34] = test system: redroot pigweed; assay: Test Example 4: weedkilling efficacy by foliar treatment; L: redroot pigweed
Method in brief: as §4

[35] = test system: fig-leafed goosefoot; assay: Test Example 4: weedkilling efficacy by foliar treatment; M: fig-leafed goosefoot
Method in brief: as §4

[36] = test system: chickweed; assay: Test Example 4: weedkilling efficacy by foliar treatment; N: chickweed
Method in brief: as §4

[37] = test system: catchweed; assay: Test Example 4: weedkilling efficacy by foliar treatment; O: catchweed
Method in brief: as §4

[38] = test system: birds-eye speedwell; assay: Test Example 4: weedkilling efficacy by foliar treatment; p: birds-eye speedwell
Method in brief: as §4

[39] = test system: directly sown rice; assay: Test Example 4: foliar treatment, effect on crop; b: directly sown rice
Method in brief: as §4

[40] = test system: corn; assay: Test Example 4: foliar treatment, effect on crop; c: corn
Method in brief: as §4

[41] = test system: soybean; assay: Test Example 4: foliar treatment, effect on crop; d: soybean
Method in brief: as §4

[42] = test system: wheat; assay: Test Example 4: foliar treatment, effect on crop; e: wheat
Method in brief: as §4

[43] = test system: beet; assay: Test Example 4: foliar treatment, effect on crop; f: beet
Method in brief: as §4

[44] = test system: rapeseed; assay: Test Example 4: foliar treatment, effect on crop; g: rapeseed
Method in brief: as §4

CC1=C(c2ccccc2)C(=O)N(C(C)(C)C(=O)Nc2cc(OC(F)F)ccn2)CO1 [B-2-64]
A (barnyard grass) weedkilling efficacy grade [1]: 5 (weed kill ratio 90% or more, (practically complete withering)) | B (bulrush) weedkilling efficacy grade [2]: 5 (weed kill ratio 90% or more, (practically complete withering)) | C (oval-leafed pondweed) weedkilling efficacy grade [3]: 5 (weed kill ratio 90% or more, (practically complete withering)) | a (transplanted rice) effect on crop grade [4]: 4 (weed kill ratio 70% or more, less than 90%) | A (barnyard grass) weedkilling efficacy grade [5]: 5 (weed kill ratio 90% or more, (practically complete withering)) | B (bulrush) weedkilling efficacy grade [6]: 5 (weed kill ratio 90% or more, (practically complete withering)) | C (oval-leafed pondweed) weedkilling efficacy grade [7]: 5 (weed kill ratio 90% or more, (practically complete withering)) | D (crabgrass) weedkilling efficacy grade [8]: 5 (weed kill ratio 90% or more, (practically complete withering)) | E (green foxtail) weedkilling efficacy grade [9]: 5 (weed kill ratio 90% or more, (practically complete withering)) | F (barnyard grass) weedkilling efficacy grade [10]: 5 (weed kill ratio 90% or more, (practically complete withering)) | G (wild oat) weedkilling efficacy grade [11]: 3 (weed kill ratio 40% or more, less than 70%) | H (black-grass) weedkilling efficacy grade [12]: 5 (weed kill ratio 90% or more, (practically complete withering)) | I (Italian ryegrass) weedkilling efficacy grade [13]: 5 (weed kill ratio 90% or more, (practically complete withering)) | J (common wind-grass) weedkilling efficacy grade [14]: 5 (weed kill ratio 90% or more, (practically complete withering)) | K (Indian mallow) weedkilling efficacy grade [15]: 3 (weed kill ratio 40% or more, less than 70%) | L (redroot pigweed) weedkilling efficacy grade [16]: 4 (weed kill ratio 70% or more, less than 90%) | N (chickweed) weedkilling efficacy grade [17]: 4 (weed kill ratio 70% or more, less than 90%) | O (catchweed) weedkilling efficacy grade [18]: 0 (weed kill ratio 5% or less (practically no effect)) | P (birds-eye speedwell) weedkilling efficacy grade [19]: 5 (weed kill ratio 90% or more, (practically complete withering)) | b (directly sown rice) effect on crop grade [20]: 4 (weed kill ratio 70% or more, less than 90%) | c (corn) effect on crop grade [21]: 1 (weed kill ratio 5% or more, less than 20%) | d (soybean) effect on crop grade [22]: 0 (weed kill ratio 5% or less (practically no effect)) | e (wheat) effect on crop grade [23]: 0 (weed kill ratio 5% or less (practically no effect)) | f (beet) effect on crop grade [24]: 4 (weed kill ratio 70% or more, less than 90%) | g (rapeseed) effect on crop grade [25]: 3 (weed kill ratio 40% or more, less than 70%) | D (crabgrass) weedkilling efficacy grade [26]: 5 (weed kill ratio 90% or more, (practically complete withering)) | E (green foxtail) weedkilling efficacy grade [27]: 5 (weed kill ratio 90% or more, (practically complete withering)) | F (barnyard grass) weedkilling efficacy grade [28]: 5 (weed kill ratio 90% or more, (practically complete withering)) | G (wild oat) weedkilling efficacy grade [29]: 4 (weed kill ratio 70% or more, less than 90%) | H (black-grass) weedkilling efficacy grade [30]: 5 (weed kill ratio 90% or more, (practically complete withering)) | I (Italian ryegrass) weedkilling efficacy grade [31]: 5 (weed kill ratio 90% or more, (practically complete withering)) | J (common wind-grass) weedkilling efficacy grade [32]: 5 (weed kill ratio 90% or more, (practically complete withering)) | K (Indian mallow) weedkilling efficacy grade [33]: 4 (weed kill ratio 70% or more, less than 90%) | L (redroot pigweed) weedkilling efficacy grade [34]: 4 (weed kill ratio 70% or more, less than 90%) | M (fig-leafed goosefoot) weedkilling efficacy grade [35]: 4 (weed kill ratio 70% or more, less than 90%) | N (chickweed) weedkilling efficacy grade [36]: 4 (weed kill ratio 70% or more, less than 90%) | O (catchweed) weedkilling efficacy grade [37]: 4 (weed kill ratio 70% or more, less than 90%) | P (birds-eye speedwell) weedkilling efficacy grade [38]: 4 (weed kill ratio 70% or more, less than 90%) | b (directly sown rice) effect on crop grade [39]: 4 (weed kill ratio 70% or more, less than 90%) | c (corn) effect on crop grade [40]: 0 (weed kill ratio 5% or less (practically no effect)) | d (soybean) effect on crop grade [41]: 4 (weed kill ratio 70% or more, less than 90%) | e (wheat) effect on crop grade [42]: 0 (weed kill ratio 5% or less (practically no effect)) | f (beet) effect on crop grade [43]: 4 (weed kill ratio 70% or more, less than 90%) | g (rapeseed) effect on crop grade [44]: 4 (weed kill ratio 70% or more, less than 90%)
